Laboratory results published in patent publication US8846912B2, “Tartrate salts of quinazoline based EGFR inhibitors containing a zinc binding moiety” (Curis, Inc., priority 2007, dated 2014).
Like-named read-outs stand apart in the source and are kept apart here.

Columns and labels:
[1] = Dilution study with D5W (precipitation, chemical stability); type: physicochemical; details: 60 mg/ml compound 12 with tartaric acid (1.3 eq) in 30% CAPTISOL, diluted in 1x water and 2x D5W
[2] = both, Sprague Dawley, rat, in vivo, iv, 8 days
Description: Single dosing MTD in rats • a. Sprague Dawley, male and female, 240-260 gram • b. Dosing at 0, 25, 50, 100, 200 mg/kg, iv infusion 5 min • c. 6 rats per group (3 male and 3 female)
(§7) Stock solution is diluted with 30% CAPTISOL® before use.

[3] = male, CD-1, mouse, in vivo, iv, 9 days
Description: Single dosing MTD in mice • a. CD-1 mice, male, 24-26 gram • b. Dosing at 0, 50, 100, 200, 400 mg/kg, iv infusion 2 min • c. 8 mice per group
as §7

[4] = male, CD-1, mouse, in vivo, ip, 7 days
Description: 7-day-multiple dosing MTD in mice • a. CD-1 mice, male, 24-26 gram • b. Dosing at 0, 50, 100, 200 mg/kg/d ip • c. 6 mice per group • d. Blood and organs will be collected 2 hr after last dosing on Day 7 for hematology
as §7

[5] = Pharmacokinetic study of compound 12 formulation in rats; type: in vivo; details: hydrochloride salt in 30% CAPTISOL, 20 and 60 mg/kg iv, FIG. 14
Description: (§1) Compound was administered via an intravenous (iv) infusion.
Rat: 20 mg/kg for 5 min i.v. infusion
(§2) Plasma samples were prepared by protein precipitation. An internal standard was added into plasma samples. […] The supernatant was then injected onto LC/MS/MS.
(§3) Samples were compared to standards made in plasma. These standards were prepared by serial dilution.

[6] = Pharmacokinetic study of compound 12 formulation in mice (iv, ip); type: in vivo; details: hydrochloride salt
[7] = both, Sprague Dawley, rat, in vivo, iv, 7 days
Description: 4. 7-day multiple dosing MTD in rats • a. Sprague Dawley, male and female, 220-250 gram • b. Dose, 25, 50, 100, 200 mg/kg/d) iv infusion 5 min • c. 6 per group (3 male and 3 female) • d. Blood and organs will be collected 2 hr after last dosing on Day 7 for hematology Compound Preparation.
as §7

[8] = test system: colon and breast cancer cells (HCT-116, SKBr3); assay: Induction of apoptosis (Caspase 3&7 activity); type: cell-based; details: HCT-116 and SKBr3, 24 hours; FIG. 4
[9] = test system: EGFR in MDA-MB-468 breast cancer cell line; assay: EGFR phosphorylation in cells; type: cell-based; details: FIG. 2
Text: (§4) FIG. 2 illustrates inhibition of HDAC and EGFR in MDA-MB-468 breast cancer cell line: (a) Ac-H4 Accumulation, (b) Ac-H3 Accumulation, (c) EGFR inhibition.

[10] = test system: HPAC pancreatic cancer cells; assay: HPAC pancreatic cancer tumor model; type: in vivo; details: 120 mg/kg in 30% CAPTISOL (iv/ip) daily; FIG. 12A
[11] = target: T1, human EGFR(His672-Ala1210) (Homo sapiens, UniProt P00533); assay: EGFR kinase assay (HTScan EGF Receptor Kinase Assay Kit); type: biochemical; details: FIG. 1
T1 construct: a construct expressing human EGFR(His672-Ala1210); GST (N); purchased Cell Signaling Technologies; host or cells: baculovirus expression system
Description: The ability of compounds to inhibit receptor kinase (EGFR) activity was assayed using HTScan™ EGF Receptor Kinase Assay Kits (Cell Signaling Technologies, Danvers, Mass.). […] The protein was purified by one-step affinity chromatography using glutathione-agarose.
Immediately transfer enzyme from −80° C. to ice. Allowed enzyme to thaw on ice. […] Returned immediately to ice. […] Incubated reaction plate at room temperature for 30 minutes. […] Added 100 μl/well primary antibody. Incubated at room temperature for 60 minutes. […] Added 100 μl/well diluted antibody. Incubated at room temperature for 30 minutes. […] Incubated at room temperature for 5 minutes.

[12] = Stability of CAPTISOL solution at room temperature; type: physicochemical; details: 25 mg/ml compound 12 with 8.6 mg tartaric acid in 30% CAPTISOL
Caki-1 Renal carcinoma = assay: Cell proliferation assay (ATPlite); type: cell-based; details: Homo sapiens; Caki-1, Renal carcinoma (Table D); read-out: IC50 in cancer cell line
Description: (§5) Cell Proliferation Assay:
(§6) Cancer cell lines were plated at 5,000 to 10,000 per well in 96-well flatted bottomed plates with various concentration of compounds. […] Growth inhibition was accessed by adenosine triphosphate (ATP) content assay using Perkin Elmer ATPlite kit. ATPlite is an ATP monitoring system based on firefly luciferase. Briefly, 25 μl of mammalian cell lysis solution was added to 50 μl of phenol red-free culture medium per well to lyse the cells and stabilize the ATP. 25 μl of substrate solution was then added to the well and subsequently the luminescence was measured.

A549 NSCLC Xenograft = assay: A549 NSCLC xenograft model; type: in vivo; details: FIG. 11A, 11B
[13] = test system: HDAC in MDA-MB-468 breast cancer cell line; assay: Histone acetylation (Ac-H4, Ac-H3 accumulation) in cells; type: cell-based; details: FIG. 2
Text: as §4

[14] = test system: various cancer cell lines; assay: Cell proliferation assay, various cancer cell lines; type: cell-based; details: Table D, FIG. 3
Description: as §5
Cancer cell lines were plated at 5,000 to 10,000 per well in 96-well flatted bottomed plates with various concentration of compounds. The cells were incubated with compounds for 72 hours in the presence of 0.5% of fetal bovine serum. Growth inhibition was accessed by adenosine triphosphate (ATP) content assay using Perkin Elmer ATPlite kit. ATPlite is an ATP monitoring system based on firefly luciferase. Briefly, 25 μl of mammalian cell lysis solution was added to 50 μl of phenol red-free culture medium per well to lyse the cells and stabilize the ATP. 25 μl of substrate solution was then added to the well and subsequently the luminescence was measured.

[15] = Pharmacokinetic study of compound 12 in dogs; type: in vivo; details: 25 mg/kg tartrate salt in 30% CAPTISOL, FIG. 19
Description: as §1
Beagle: 25 mg/kg for 30 min i.v. infusion
as §2, §3

Colon_HCT116 = assay: Cell proliferation assay (ATPlite); type: cell-based; details: Homo sapiens, HCT-116; HCT116, Colon cancer (Table D); read-out: IC50 in cancer cell line
Description: as §5, §6

Breast_MCF7 = assay: Cell proliferation assay (ATPlite); type: cell-based; details: Homo sapiens, MCF7; MCF-7, Breast adenocarcinoma (Table D); read-out: IC50 in cancer cell line
Description: as §5, §6

[16] = test system: MDA-MB-231 Breast adenocarcinoma; assay: Cell proliferation assay (ATPlite); type: cell-based; details: Homo sapiens; MDA-MB-231, Breast adenocarcinoma (Table D); read-out: IC50 in cancer cell line
Description: as §5, §6

Prostate_PC3 = assay: Cell proliferation assay (ATPlite); type: cell-based; details: PC-3, Prostate adenocarcinoma (Table D); read-out: IC50 in cancer cell line
Description: as §5, §6

Breast_SkBr3 = assay: Cell proliferation assay (ATPlite); type: cell-based; details: Homo sapiens, SK-BR-3; SKBr3, Breast carcinoma (Table D); read-out: IC50 in cancer cell line
Description: as §5, §6

T1 sequence (P00533 672-1210): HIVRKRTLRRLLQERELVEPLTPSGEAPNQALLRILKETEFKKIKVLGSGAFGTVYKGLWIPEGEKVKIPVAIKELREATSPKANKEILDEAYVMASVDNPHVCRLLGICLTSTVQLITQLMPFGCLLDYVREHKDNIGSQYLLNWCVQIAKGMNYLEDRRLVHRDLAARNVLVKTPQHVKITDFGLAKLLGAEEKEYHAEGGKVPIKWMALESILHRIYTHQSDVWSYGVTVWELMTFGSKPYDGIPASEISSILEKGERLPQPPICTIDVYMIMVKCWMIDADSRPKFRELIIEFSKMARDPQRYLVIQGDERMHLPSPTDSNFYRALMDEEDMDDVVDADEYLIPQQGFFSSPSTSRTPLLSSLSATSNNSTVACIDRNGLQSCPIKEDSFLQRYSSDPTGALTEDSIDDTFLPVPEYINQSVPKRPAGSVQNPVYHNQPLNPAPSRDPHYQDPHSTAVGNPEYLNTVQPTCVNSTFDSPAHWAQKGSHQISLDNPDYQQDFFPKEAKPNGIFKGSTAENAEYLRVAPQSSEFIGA

Which results are given for `C#Cc1cccc(Nc2ncnc3cc(OC)c(OCCCCCCC(=O)NO)cc23)c1` [Compound 12, 7-(4-(3-ethynylphenylamino)-7-methoxyquinazolin-6-yloxy)-N-hydroxyheptanamide]?
stability of diluted solution at room temperature [1]: > 12 h; dose without significant change in body weight [2]: up to 200 mg/kg; dose without significant change in body weight [3]: up to 200 mg/kg; dose without significant change in body weight [4]: up to 100 mg/kg; dose proportionality of plasma concentration [5]: proportional to the dose; dose proportionality of concentration ([6]; 20 and 60 mg/kg, iv and ip): dose proportional when administered intravenously but not intraperitoneally; half-life in tissue versus plasma ([6]; lung, colon, plasma): greater than that in plasma; dose without significant change in body weight or food consumption [7]: up to 100 mg/kg; cell apoptosis measured by increased Caspase 3&7 activity [8]: 4-11 times; inhibition of EGFR phosphorylation compared with Erlotinib [9]: improvement in inhibition of histone acetylation and EGFR phosphorylation; attenuation of tumor growth [10]: greater attenuation of tumor growth than either erlotinib (po) or vehicle; activity in EGFR enzyme assay compared with erlotinib [11]: more active than erlotinib and SAHA; stability of solution [12]: stable at room temperature; IC50 (Caki-1 Renal carcinoma): ≤ 0.05 µM; effect on tumor growth / tumor size (A549 NSCLC Xenograft): attenuated tumor growth; inhibition of histone acetylation compared with SAHA [13]: improvement in inhibition of histone acetylation; anti-proliferative activity compared with Erlotinib, SAHA and their combination [14]: more active than Erlotinib and SAHA; concentration in plasma in 4 hours [15]: less than 10 mg/ml

With `C#Cc1cccc(Nc2ncnc3cc(OCCOC)c(OCCOC)cc23)c1` [Erlotinib] as the compound, how does the IC50 (Colon_HCT116) read?
The IC50 was at most 5 µM.

What about the IC50 (Breast_MCF7) of the same compound?
Its IC50 is at most 5 µM.

What about the IC50 [16] of the same compound?
Its IC50 is at most 5 µM.

And the IC50 (Prostate_PC3)?
The IC50 was at most 5 µM.

What about the IC50 (Breast_SkBr3) of the same compound?
The IC50 was at most 5 µM.

And the “effect on tumor growth / tumor size” value (A549 NSCLC Xenograft)?
Its value is “did not significantly affect tumor size as compared to control”.
